According to publication PMC8672735, “Computational and experimental investigation of the effect of cation structure on the solubility of anionic flow battery active-materials” (Chemical Science, 2021):
Read-outs that look alike come from different tables or passages of the source.

Key:
[1] = in DMSO and MeCN at 0.01 M, 0.05 M, 0.1 M, 0.2 M, and 0.5 M; 25 °C
Procedure: The viscosity measurements were collected using the Cannon Instruments Semi-Micro Viscometer. Concentrations of 0.01 M– 0.55 M were used when collecting the viscosity data at ambient temperature (25 °C). The U-tube style viscometer allowed for the collection of kinematic viscosity in centiStokes (cSt) which was then converted to dynamic viscosity in centiPoise (cP) using the electrolyte density.

[2] = Experimental solubility of [Nxxxx]y[VBH] active materials (maximum concentration by UV-Vis spectroscopy); type: physicochemical; conditions: anhydrous, organic solvent or mixture, read-out: Experimental solubility (maximum concentration of VBH in the electrolyte)
From the text: To investigate the solubilities of VBH-based active materials, we synthesized the alkylammonium [VBH] compounds in their reduced (+4) and oxidized (+5) states ([Nxxxx]2[V(+4)BH] and [Nxxxx][V(+5)BH], where x = 1 (methyl), 2 (ethyl), 3 (n-propyl), 4 (n-butyl)) and measured their solubilities in tetrahydrofuran (THF), acetonitrile (MeCN), dimethyl sulfoxide (DMSO), and propylene carbonate (PC). […] This led us to explicitly explore the interplay between competing trends in solvation energy and lattice enthalpy, which was implied by our previous work,[5] using a combined computational and synthetic strategy.
UV-Vis spectra were collected using the Evolution 220 UV-visible spectrophotometer with a quartz cuvette of 1 cm path length. The molar extinction coefficients for oxidized and reduced species in all solvents except for DMSO were used as determined in our previous study.[5] Molar extinction coefficients for oxidized species in DMSO were determined from a calibration curve. Infrared spectra were collected on a Thermo Scientific Nicolet iS5 equipped with iD7ATR module and a diamond crystal. ^1H- and ^13C-NMRs were performed on Bruker AVANCE III HD 400 MHz High-Performance Digital NMR spectrometer operating at 400 MHz for ^1H NMR and 101 MHz for ^13C NMR. Data acquisition was performed on IconNMR 5.0.3, and spectra were processed in TopSpin 3.5 and Mnova. High-Resolution Mass Spectrometry (HRMS) was performed on a Waters ACQUITY UPLC Xevo QTOF high resolution mass spectrometer using electrospray ionization. X-ray crystallographic experiments were performed on a Bruker D8 Venture X-instrument, using Mo Kα radiation at 200 K. Data were corrected for absorption using SADABS. The structures were solved by direct methods. All non-hydrogen atoms were refined anisotropically by full matrix least-squares on F^2 and all hydrogen atoms except those on water were placed in calculated positions with appropriate riding parameters. Further refinement and molecular graphics were obtained using Bruker Suite of structural programs,[55] OLEX2,[56] and Mercury.[57]
Hydroxylamine hydrochloride (Alfa Aesar), sodium hydroxide (Acros organics), chloroacetic acid (BTC), zinc acetate dihydrate (Acros Organics), calcium chloride (VWR), tetramethylammonium fluoride tetrahydrate (Matrix Scientific), tetraethylammonium fluoride (BTC), triethylamine (Acros Organics), n-butylbromide (Alfa Aesar), n-propylbromide (BTC), ferrocenium hexafluorophosphate (Sigma Aldrich), and vanadyl (iv) acetylacetonate (BTC) were purchased from commercial sources and used as received. Information on the characterization of new materials and those that were reported previously, and were used for solubility studies herein, are provided below. Solvent used in solubility measurement were of anhydrous grade and purchased from Sigma Aldrich.

[3] = acetonitrile (MeCN), MeCN (ϵ = 37), +4 state, [Nxxxx]2[VBH]
[4] = acetonitrile (MeCN), MeCN (ϵ = 37), +5 state, [Nxxxx][VBH]
[5] = dimethyl sulfoxide (DMSO), DMSO (ϵ = 47), +4 state, [Nxxxx]2[VBH]
[6] = dimethyl sulfoxide (DMSO), DMSO (ϵ = 47), +5 state, [Nxxxx][VBH]
[7] = propylene carbonate (PC), PC (ϵ = 66), +4 state, [Nxxxx]2[VBH]
[8] = propylene carbonate (PC), PC (ϵ = 66), +5 state, [Nxxxx][VBH]

| solubility [2, 3] [mM] | solubility [2, 4] [mM] | solubility [2, 5] [mM] | solubility [2, 6] [mM] | solubility [2, 7] [mM] | solubility [2, 8] [mM] | SMILES | viscosity [1] |
| --- | --- | --- | --- | --- | --- | --- | --- |
|  |  |  |  |  |  | CCCC[N+](CCCC)(CCCC)CCCC [[N4444]2[VBH]] | generally increases with solution concentration |
| 24 | 8 | 246 | 252 | 108 | 40 | CCC[N+](C)(C)C [compound 1113] |  |
| 76 | 7 | 624 | 225 | 377 | 33 | CCCC[N+](C)(C)C [compound 1114] |  |

| SMILES | solubility [2, 3] [mM] | solubility [2, 4] [mM] | solubility [2, 5] [mM] | solubility [2, 6] [mM] | solubility [2, 7] [mM] | solubility [2, 8] [mM] | viscosity [1] |
| --- | --- | --- | --- | --- | --- | --- | --- |
| CC[N+](CC)(CC)CC [compound 2222] |  | 64 |  | 804 |  | 215 |  |
